This note sets out measurements from publication PMC10876879, “Sustained silencing peanut allergy by xanthopurpurin is associated with suppression of peripheral and bone marrow IgE-producing B cell” (Frontiers in Immunology, 2024).

Converted amounts (≈) assume the structure as drawn.

Data set [1] deals with U266 cells. In words: Cell viability of U266 cells by trypan blue exclusion. The data set is classed as cell-based, human. The note with it: all concentrations tested (2.5-40 µg/mL). The protocol:
Cell viability was evaluated using a trypan blue exclusion as previously described ([31]). Briefly, a 10µL of cells suspension from each culture was mixed with equal volume of trypan blue dye. The mixture was loaded into a hemocytometer and cells were counted under a microscope. The percentage of viable cells was calculated as follows: Viable cells (%) = (total number of viable cells)/(total number of cells) × 100.

In data set [2] the test system is ARH-77 cells. In words: Cell viability of ARH-77 cells by trypan blue exclusion. It is filed as cell-based, human. The note with it: XPP 2.5-40 μg/mL. The procedure:
Cell viability was evaluated using the trypan blue exclusion assay. Briefly, 10µL of ARH-77 cells at each testing condition was mixed with 10 µL of trypan blue dye. The mixture was then loaded into a hemocytometer and the viable cells were counted under a microscope. The percentage of viable cells was calculated as follows: Viable cells (%) = (total number of viable cells) / (total number of cells) × 100.

Data set [3] relates to naïve C3H/HeJ mice. In words: Acute toxicity assay. It is filed as in vivo. The procedure:
(§1) For acute toxicity analysis, naïve C3H/HeJ mice were fed with 4 mg of XPP per mouse, which is10 times of the daily dose. […] In the sub-chronic toxicity assay, naïve C3H/HeJ mice were fed with 5 times their daily therapeutic dose (2 mg/day) for 14 days. Control group mice (sham) were fed with water. Blood samples were collected at the end of each experiment. Blood urea nitrogen (BUN) and alanine aminotransferase (ALT) measurements for the evaluation of kidney and liver functions respectively and complete blood count (CBC) testing were performed by ALX laboratories, NY.

Data set [4] concerns IgG production by ARH-77 cells. The data set can be described thus: IgG production by ARH-77 cells, IgG ELISA. It is filed as cell-based, human. The note with it: XPP 2.5, 5, 10, 20, and 40 μg/mL. The protocol:
ARH-77, a human IgG-producing myeloma cell line, was purchased from ATCC (American Type Culture Collection; Manassas, VA). The culture media contains RPMI 1640 medium supplemented, 10% FBS, 1 mM sodium pyruvate, 1×10^-5 M β-ME and 0.5% penicillin-streptomycin. Cells were cultured at 37°C under 5% CO2. […] After 3 days, supernatants were harvested and IgG levels were determined using an ELISA Kit (Mabtech Inc, OH).

The subject of data set [5] is IgE+ B cells. In words: Flow cytometry of IgE+ B cells in spleen and bone marrow of treated mice (Model #2). To be noted: model #2, vs sham. It is filed as in vivo, C3H/HeJ mice. The protocol:
Single cell suspensions of spleen, bone marrow from two femurs and heparinized peripheral blood were isolated in AIM-V medium. Erythrocytes were lysed with red cell lysing buffer (Sigma-Aldrich, St. Louis, MO). For staining, cells were suspended in ice cold staining buffer (PBS including 0.5 mM EDTA, 0.05 mM Sodium Azide, 0.5% BSA). Surface staining was performed by incubating cells with unlabeled anti-IgE (to block membrane IgE), BV605 anti-B220, BV711-anti-CD3, anti-CD16/32 (Fc-block), all from BD Biosciences, CA). Live-dead discriminating dye (Live-Dead Aqua, Invitrogen, CA) was included. After incubation, cells were washed and suspended in fixation/permeabilization buffer for 15 mins. Cells were washed with permeabilization buffer and incubated with Fitc-anti IgE in permeabilization buffer for 30 mins in the dark on ice. After washing, cells were treated with Cytofix buffer for 15 mins for post-fixation and then washed 3 times with staining buffer and finally resuspended in 200 µL staining buffer for cell acquisition on LSRII flow cytometer (BD Bioscience, San Jose, CA). Flow cytometry analysis was performed using Flow Jo 5.4 software (Tree Star Inc., Ashland, Oregon) as follows. […] From live cell gate, all IgE+ (Fitc-IgE) cells were gated and subsequently analyzed for IgE+ B cells (Fitc-IgE +; BV605-B220+ cells).

The test system of data set [6] is U266 cells. In words: RNA sequencing of XPP-treated U266 cells. The data set is classed as cell-based, human. To be noted: XPP 10 μg/mL, 3 days. The protocol: U266 cells were treated with XPP at 10 μg/mL. After 3 days of treatment, cells were collected and total RNA was isolated using Qiagen RNeasy MiniKits following the manufacturer’s instructions. The purity of total RNA was analyzed and the RNA-Seq was performed with an Illumina HiSeq2500 instrument at the Genomics Core facility at Icahn School of Medicine at Mount Sinai. Counts were converted to Log2 counts per million and normalized. A log2 fold change was calculated and the gene list with values ≥ 2 or ≤ -2 were uploaded to DAVID bioinformatic system for functional analysis.

Data set [7] relates to naïve C3H/HeJ mice. The data set can be described thus: Sub-chronic toxicity assay. The data set is classed as in vivo. The protocol: as §1
Data set [8] deals with IgE production by U266 cells. The data set can be described thus: IgE production by human myeloma U266 cells, IgE ELISA of supernatants. It is filed as cell-based. The protocol: The human myeloma cell line (U266), purchased from ATCC (American Type Culture Collection; Rockville, MD), has been used to test different herb extracts and purified compounds for their IgE inhibitory effects ([31]). 2×10^5 cells/mL of cells were cultured at 37°C under 5% CO2 in complete media containing RPMI 1640 medium supplemented, 10% FBS, 1 mM sodium pyruvate, 1×10^-5 M β-ME and 0.5% penicillin-streptomycin. XPP at 0, 2.5, 5, 10, 20 and 40 μg/mL were added at day 0. After 6 days, supernatants were harvested and IgE levels were measured by using an ELISA Kit (Mabtech Inc, OH). Briefly, samples and standards were added into prewashed 96-well plate coated with capture monoclonal antibodies (mAbs). After 2-hour incubation at room temperature, plate was washed 5 times and incubated with detection mAb for 1 hour. The plate was then washed for 5 times and incubated with streptavidin-HRP for 1hour at room temperature. The plate was then washed and developed with TMB substrate for 15 min. The optical density was measured using ELISA reader at 450nm. IgE concentrations were calculated based on the standard curve.
S Figure 2. The IgE inhibitory effect of five fractions from R.cordifolia. U266 cells (2 × 10^5 cells/mL) were co-incubated with each fraction at the concentration of 10 μg/mL for 6 days. The supernatants were harvested and IgE levels were measured by ELISA. The inhibition percentage was calculated using the equation “% inhibition = (1- IgE level each fr / IgE level non-treated ) x 100%”.

Setting [9] is: 10x dose (4 mg/mouse) once, observed 14 days.

Consider `O=C1c2ccccc2C(=O)c2c(O)cc(O)cc21` [XPP, xanthopurpurin], for which, in data set [1], the “Toxicity / cell viability of U266 cells (trypan blue)” value is on record as “No toxicity was observed at any concentration tested”. Moreover, in data set [2], the “Toxicity / cell viability of ARH-77 cells” value is recorded as “No toxicity was observed”. The “Deaths, abnormal behavior or diarrhea” value in data set [3] (10 times (4 mg/day) once, observed daily for 14 days) is “No deaths and abnormal behavior or diarrhea were observed”. Besides, in data set [3] (setting [9]), the Morbidity is reported as 0.00% and the Mortality worked out at 0.00%. For the same compound, in data set [4], the “IgG production by ARH-77 cells” value is listed as “didn’t show significant inhibition”. Also, the “Percentage of IgE+ B cells (over all IgE+ cells) in bone marrow” value in data set [5] (p < 0.001) is on record as “significantly reduced”. For the same compound, the “Percentage of IgE+ B cells (over all IgE+ cells) in spleen” value in data set [5] (p < 0.01) is “significantly reduced”. For the same compound, in data set [6], the “Number of genes downregulated (RNA-Seq)” value amounted to 5094 genes and the “Number of genes upregulated (RNA-Seq)” value came out at 4009 genes. Further, in data set [7] (mouse, in vivo), the “CBC: white blood cell, red blood cell, hemoglobin and platelet levels vs control group and normal range” value is “within the normal range and similar to the control group”. The “Deaths, abnormal behavior or diarrhea” value in data set [7] (sub-chronic, 5 times (2 mg/day) for 14 consecutive days) is “No deaths and abnormal behavior or diarrhea were observed either”. This compound came in with a Mortality in data set [7] (sub-chronic, 5x dose (2 mg/day/mouse) for 14 days) of 0.00%. This compound also registered an IC50 in data set [8] (Homo sapiens, U-266, 144 h, 6 days culture, IgE ELISA) of 9 µg/mL (≈ 37.5 µM). Further, in data set [8] (U266 cells, 6 days), the “XPP concentration at which complete inhibition of IgE production was observed” value came to 40 µg/mL and the “XPP concentration at which inhibition of IgE was first observed” value was 2.5 µg/mL. Besides, the “XPP concentration reaching statistically significant inhibition of IgE” value in data set [8] (U266 cells, 6 days, p < 0.01) was determined as 10 µg/mL. Further, the “IgE production by U266 cells” value in data set [8] (XPP 2.5-40 µg/mL, 6 days) is reported as “inhibited the IgE production by U266 cells in a dose-dependent manner”.
